The species entered for this assay is Rattus norvegicus. In words: Ratio concentration and the concentration of SFLLR-NH2 necessary for producing an equal relaxing effect on the isolated rat aortic rings. The format is functional, Aorta.
With `N=C(N)NCCCCCC(=O)N1CCC(C(=O)NCc2ccc(F)cc2)CC1`, the Relative potency amounted to 37.3. Turning to `N=C(N)NCCCCCC(=O)NCCCCNC(=O)Cc1ccc(F)cc1`, the Relative potency stood at 50.6. Under `N=C(N)NCCCCCC(=O)NCCCCNC(=O)Cc1ccccc1` stands 68; under `CC(C)C[C@H](NC(=O)[C@H](CC(C)C)NC(=O)[C@H](Cc1ccccc1)NC(=O)[C@@H](N)CO)C(=O)N[C@@H](CCCN=C(N)N)C(N)=O`, 1; under `CC(C)C[C@@H]1NC(=O)[C@H](CC(C)C)NC(=O)[C@H](Cc2ccccc2)NC(=O)[C@@H](N)CNC(=O)[C@@H](N)CCCCNC(=O)[C@H](CCCN=C(N)N)NC1=O`, 3.3.

On to `CC(C)C[C@@H]1NC(=O)[C@H](CC(C)C)NC(=O)[C@@H](Cc2ccccc2)NC(=O)[C@@H](N)CNC(=O)[C@@H](N)CCCCNC(=O)[C@H](CCCNC(=N)N)NC1=O`, for which the Relative potency was more than 500. As for `NC(N)=NCCCCCC(=O)N1CCN(C(=O)C(N)Cc2ccccc2)CC1` (configuration not stated), the Relative potency worked out at 32.8.
